ChEMBL document CHEMBL4680273, “Teixobactin: A Paving Stone toward a New Class of Antibiotics?” (2020)
Values after ≈ are worked out from the molar mass of the structure shown. Each block holds one compound with its values, some of them ahead of it.

Experiments:
Type in all cases: functional
Bacillus subtilis [1] = experiment: Antibacterial activity against Bacillus subtilis 168 incubated for 24 hrs
Staphylococcus aureus [2] = experiment: Antibacterial activity against methicillin resistant Staphylococcus aureus ATCC 33591 incubated for 24 hrs
Staphylococcus aureus [3] = experiment: Antibacterial activity against methicillin resistant Staphylococcus aureus
Staphylococcus aureus [4] = experiment: Antibacterial activity against Staphylococcus aureus ATCC 29213 by CLSI-based broth microdilution method
Staphylococcus aureus [5] = experiment: Antibacterial activity against Staphylococcus aureus ATCC 29213
Bacillus subtilis [6] = experiment: Antibacterial activity against Bacillus subtilis ATCC 6051 incubated for 24 hrs by CLSI based broth microdilution method
Staphylococcus aureus [7] = experiment: Antibacterial activity against Staphylococcus aureus ATCC 29213 incubated for 24 hrs by CLSI-based broth microdilution method
Bacillus subtilis [8] = experiment: Antibacterial activity against Bacillus subtilis ATCC 6051 incubated for 16 hrs by UV/Visible absorbance method
Staphylococcus aureus [9] = experiment: Antibacterial activity against Staphylococcus aureus ATCC 29213 incubated for 16 hrs by UV/Visible absorbance method

SMILES: CC[C@H](C)[C@H](NC(=O)[C@@H](Cc1ccccc1)NC)C(=O)N[C@@H](CO)C(=O)N[C@H](CCC(N)=O)C(=O)N[C@@H](C(=O)N[C@H](C(=O)N[C@@H](CO)C(=O)N[C@H]1C(=O)N[C@@H](C)C(=O)N[C@@H](CCCN)C(=O)N[C@@H]([C@@H](C)CC)C(=O)O[C@H]1C)[C@@H](C)CC)[C@@H](C)CC
- MIC (Bacillus subtilis [1]): 0.25 µg/mL (≈ 0.208 µM)
- MIC (Staphylococcus aureus [2]): 2 µg/mL (≈ 1.66 µM)

SMILES: CC[C@H](C)[C@H](NC(=O)[C@@H](Cc1ccccc1)NC)C(=O)N[C@@H](CO)C(=O)N[C@H](CC(N)=O)C(=O)N[C@@H](C(=O)N[C@H](C(=O)N[C@@H](C)C(=O)N[C@H]1C(=O)N[C@@H](C)C(=O)N[C@@H](CCCNC(=N)N)C(=O)N[C@@H]([C@@H](C)CC)C(=O)O[C@H]1C)[C@@H](C)CC)[C@@H](C)CC
- MIC (Staphylococcus aureus [3]): 0.5 µg/mL (≈ 0.412 µM)
- MIC (Staphylococcus aureus [4]): 2 µg/mL (≈ 1.65 µM)

SMILES: CC[C@H](C)[C@H](NC(=O)[C@@H](Cc1ccccc1)NC)C(=O)N[C@@H](C)C(=O)N[C@H](CCC(N)=O)C(=O)N[C@@H](C(=O)N[C@H](C(=O)N[C@@H](CO)C(=O)N[C@H]1C(=O)N[C@@H](C)C(=O)N[C@@H](CCCCN)C(=O)N[C@@H]([C@@H](C)CC)C(=O)O[C@H]1C)[C@@H](C)CC)[C@@H](C)CC
- MIC (Staphylococcus aureus [3]): 1 µg/mL (≈ 0.833 µM)
- MIC (Staphylococcus aureus [5]): 0.5 µg/mL (≈ 0.416 µM)

- MIC (Bacillus subtilis [6]): 8 µg/mL (≈ 6.22 µM)
- MIC (Staphylococcus aureus [7]): 32 µg/mL (≈ 24.9 µM)
SMILES: CC[C@H](C)[C@H](NC(=O)[C@@H](Cc1ccccc1)NC)C(=O)N[C@@H](CO)C(=O)N[C@H](CCC(N)=O)C(=O)N[C@@H](C(=O)N[C@H](C(=O)N[C@@H](CCCCO)C(=O)N[C@H]1C(=O)N[C@@H](C)C(=O)N[C@@H](CCCNC(=N)N)C(=O)N[C@@H]([C@@H](C)CC)C(=O)O[C@H]1C)[C@@H](C)CC)[C@@H](C)CC

SMILES: CC[C@H](C)[C@H](NC(=O)[C@@H](Cc1ccccc1)NC)C(=O)N[C@@H](CO)C(=O)N[C@H](CCCNC(=N)N)C(=O)N[C@@H](C(=O)N[C@H](C(=O)N[C@@H](C)C(=O)N[C@H]1C(=O)N[C@@H](C)C(=O)N[C@@H](CCCNC(=N)N)C(=O)N[C@@H]([C@@H](C)CC)C(=O)O[C@H]1C)[C@@H](C)CC)[C@@H](C)CC
- MIC (Staphylococcus aureus [3]): 1 µg/mL (≈ 0.796 µM)
- MIC (Staphylococcus aureus [4]): 2 µg/mL (≈ 1.59 µM)

SMILES: CC[C@H](C)[C@H](NC(=O)[C@@H](Cc1ccccc1)NC)C(=O)N[C@@H](CO)C(=O)N[C@H](CCC(N)=O)C(=O)N[C@@H](C(=O)N[C@H](C(=O)N[C@@H](CO)C(=O)N[C@H]1C(=O)N[C@@H](C)C(=O)N[C@@H](CCCCNC(=N)N)C(=O)N[C@@H]([C@@H](C)CC)C(=O)O[C@H]1C)[C@@H](C)CC)[C@@H](C)CC
- MIC (Bacillus subtilis [1]): 0.125 µg/mL (≈ 0.0993 µM)
- MIC (Staphylococcus aureus [2]): 1 µg/mL (≈ 0.795 µM)

- MIC (Bacillus subtilis [6]): 1 µg/mL (≈ 0.814 µM)
- MIC (Staphylococcus aureus [7]): 4 µg/mL (≈ 3.26 µM)
SMILES: CC[C@H](C)[C@H](NC(=O)[C@@H](Cc1ccccc1)NC)C(=O)N[C@@H](CO)C(=O)N[C@H](CCCCN)C(=O)N[C@@H](C(=O)N[C@H](C(=O)N[C@@H](C)C(=O)N[C@H]1C(=O)N[C@@H](C)C(=O)N[C@@H](CCCNC(=N)N)C(=O)N[C@@H]([C@@H](C)CC)C(=O)O[C@H]1C)[C@@H](C)CC)[C@@H](C)CC

- MIC (Bacillus subtilis [8]): 1 µg/mL (≈ 0.768 µM)
- MIC (Staphylococcus aureus [5]): 6 µg/mL (≈ 4.61 µM)
SMILES: CC[C@H](C)[C@H](NC(=O)[C@@H](Cc1ccccc1)NC)C(=O)N[C@@H](CO)C(=O)N[C@H](CCC(N)=O)C(=O)N[C@@H](C(=O)N[C@H](C(=O)N[C@@H](CO)C(=O)N[C@H]1C(=O)N[C@@H](CCCCN)C(=O)N[C@@H](CCCNC(=N)N)C(=O)N[C@@H]([C@@H](C)CC)C(=O)O[C@H]1C)[C@@H](C)CC)[C@@H](C)CC

SMILES: CC[C@H](C)[C@H](NC(=O)[C@@H](Cc1ccccc1)NC)C(=O)N[C@@H](CO)C(=O)N[C@H](CCC(N)=O)C(=O)N[C@@H](C(=O)N[C@H](C(=O)N[C@@H](CO)C(=O)N[C@H]1C(=O)N[C@@H](C)C(=O)N[C@@H](CCN)C(=O)N[C@@H]([C@@H](C)CC)C(=O)O[C@H]1C)[C@@H](C)CC)[C@@H](C)CC
- MIC (Bacillus subtilis [1]): 1 µg/mL (≈ 0.841 µM)
- MIC (Staphylococcus aureus [2]): 2 µg/mL (≈ 1.68 µM)

- MIC (Bacillus subtilis [8]): 4 µg/mL (≈ 3.5 µM)
- MIC (Staphylococcus aureus [9]): 1 µg/mL (≈ 0.875 µM)
SMILES: CC[C@H](C)[C@H](NC(=O)[C@@H](Cc1ccccc1)NC)C(=O)N[C@@H](CO)C(=O)N[C@H](C)C(=O)N[C@@H](C(=O)N[C@H](C(=O)N[C@@H](C)C(=O)N[C@H]1C(=O)N[C@@H](C)C(=O)N[C@@H](CCCCN)C(=O)N[C@@H]([C@@H](C)CC)C(=O)O[C@H]1C)[C@@H](C)CC)[C@@H](C)CC

SMILES: CC[C@H](C)[C@H](NC(=O)[C@@H](Cc1ccccc1)NC)C(=O)N[C@@H](CO)C(=O)N[C@H](CCC(N)=O)C(=O)N[C@@H](C(=O)N[C@H](C(=O)N[C@@H](CO)C(=O)N[C@H]1C(=O)N[C@@H](C)C(=O)N[C@@H](CCCCN)C(=O)N[C@@H]([C@@H](C)CC)C(=O)O[C@H]1C)[C@@H](C)CC)[C@@H](C)CC
- MIC (Bacillus subtilis [1]): 0.25 µg/mL (≈ 0.206 µM)
- MIC (Staphylococcus aureus [2]): 1 µg/mL (≈ 0.822 µM)

- MIC (Bacillus subtilis [8]): 2 µg/mL (≈ 1.69 µM)
- MIC (Staphylococcus aureus [9]): 2 µg/mL (≈ 1.69 µM)
SMILES: CC[C@H](C)[C@H](NC(=O)[C@@H](Cc1ccccc1)NC)C(=O)N[C@@H](CO)C(=O)N[C@H](CCCCN)C(=O)N[C@@H](C(=O)N[C@H](C(=O)N[C@@H](C)C(=O)N[C@H]1C(=O)N[C@@H](C)C(=O)NC(CCCN)C(=O)N[C@@H]([C@@H](C)CC)C(=O)O[C@H]1C)[C@@H](C)CC)[C@@H](C)CC (some centres undefined)
